From paper PMC11240139, “Exploring the antitumor potential of novel quinoline derivatives via tubulin polymerization inhibition in breast cancer; design, synthesis and molecular docking” (RSC Advances, 2024)

Columns and labels:
Type in all cases: cell-based
[1] = system: SR (leukemia); test: NCI-60 SRB cytotoxicity screen; conditions: single dose 10 μM, read-out: growth inhibition (GI%)
[2] = system: RXF 393 (renal cancer); test: NCI-60 SRB cytotoxicity screen; conditions: Homo sapiens; RXF 393, single dose 10 μM; read-out: growth inhibition (GI%)
[3] = system: DU-145 (prostate cancer); test: NCI-60 SRB cytotoxicity screen; conditions: Homo sapiens; DU-145, single dose 10 μM; read-out: growth inhibition (GI%)
[4] = system: T-47D (breast cancer); test: NCI-60 SRB cytotoxicity screen; conditions: Homo sapiens, T47D, single dose 10 μM, read-out: growth inhibition (GI%)
[5] = system: HCC-2998 (colon cancer); test: NCI-60 SRB cytotoxicity screen; conditions: Homo sapiens; HCC-2998, single dose 10 μM; read-out: growth inhibition (GI%)
[6] = system: HCT-116 (colon cancer); test: NCI-60 SRB cytotoxicity screen; conditions: Homo sapiens; HCT-116, single dose 10 μM; read-out: growth inhibition (GI%)
[7] = system: HOP-62 (non-small cell lung cancer); test: NCI-60 SRB cytotoxicity screen; conditions: Homo sapiens; HOP-62, single dose 10 μM; read-out: growth inhibition (GI%)
[8] = system: SNB-19 (CNS cancer); test: NCI-60 SRB cytotoxicity screen; conditions: Homo sapiens; SNB-19, single dose 10 μM; read-out: growth inhibition (GI%)
[9] = system: OVCAR-3 (ovarian cancer); test: NCI-60 SRB cytotoxicity screen; conditions: Homo sapiens; OVCAR-3, single dose 10 μM; read-out: growth inhibition (GI%)
[10] = system: IGROV1 (ovarian cancer); test: NCI-60 SRB cytotoxicity screen; conditions: Homo sapiens, IGROV-1; IGROV1, single dose 10 μM; read-out: growth inhibition (GI%)
[11] = system: BT-549 (breast cancer); test: NCI-60 SRB cytotoxicity screen; conditions: Homo sapiens; BT-549, single dose 10 μM; read-out: growth inhibition (GI%)
[12] = system: HS 578T (breast cancer); test: NCI-60 SRB cytotoxicity screen; conditions: Homo sapiens, single dose 10 μM, read-out: growth inhibition (GI%)
[13] = system: UACC-62 (melanoma); test: NCI-60 SRB cytotoxicity screen; conditions: Homo sapiens; UACC-62, single dose 10 μM; read-out: growth inhibition (GI%)
[14] = system: SK-MEL-28 (melanoma); test: NCI-60 SRB cytotoxicity screen; conditions: Homo sapiens; SK-MEL-28, single dose 10 μM; read-out: growth inhibition (GI%)
[15] = system: SK-MEL-5 (melanoma); test: NCI-60 SRB cytotoxicity screen; conditions: Homo sapiens; SK-MEL-5, single dose 10 μM; read-out: growth inhibition (GI%)
[16] = system: NCI-H23 (non-small cell lung cancer); test: NCI-60 SRB cytotoxicity screen; conditions: Homo sapiens; NCI-H23, single dose 10 μM; read-out: growth inhibition (GI%)
[17] = system: MCF7 (breast cancer); test: NCI-60 SRB cytotoxicity screen; conditions: Homo sapiens; MCF7, single dose 10 μM; read-out: growth inhibition (GI%)
[18] = system: COLO 205 (colon cancer); test: NCI-60 SRB cytotoxicity screen; conditions: Homo sapiens; COLO 205, single dose 10 μM; read-out: growth inhibition (GI%)
[19] = system: KM12 (colon cancer); test: NCI-60 SRB cytotoxicity screen; conditions: Homo sapiens; KM12, single dose 10 μM; read-out: growth inhibition (GI%)
[20] = system: HL-60(TB) (leukemia); test: NCI-60 SRB cytotoxicity screen; conditions: Homo sapiens, single dose 10 μM, read-out: growth inhibition (GI%)
[21] = system: NCI-H522 (non-small cell lung cancer); test: NCI-60 SRB cytotoxicity screen; conditions: Homo sapiens; NCI-H522, single dose 10 μM; read-out: growth inhibition (GI%)
[22] = system: K-562 (leukemia); test: NCI-60 SRB cytotoxicity screen; conditions: Homo sapiens; K-652 [sic], single dose 10 μM; read-out: growth inhibition (GI%)
[23] = system: 60 cancer cell lines (NCI); test: NCI-60 single-dose screen, overall verdict over the panel; conditions: single dose 10 μM, whole panel
Experimental: The cytotoxic activity of the synthesized quinoline derivatives was determined by the national cancer institute (NCI, Bethesda, Maryland, USA) against 60 different cancer cell lines at a single high dose (10^−5 M) in the full NCI 60 cell panel using the sulforhodamine B assay for cell viability evaluation. In summary, 5 × 10^3 cells were in 96-well plate and incubated in complete media for 24 h. Cells were treated with 100 μL of media containing each newly synthesized compound. After drug exposure, cells were fixed by replacing media with 150 μL of 10% TCA and incubated at 4 °C for 1 h. The TCA solution was removed, and the cells were washed 5 times with distilled water. Aliquots of 70 μL SRB solution (0.4% w/v) were added and incubated in a dark place at room temperature for 10 min. The plates were washed 3 times with 1% acetic acid and allowed to air-dry overnight. Then, 150 μL of TRIS (10 mM) was added to dissolve protein-bound SRB stain. The absorbance was measured at 540 nm.% Cytotoxicity = [1 − (AVx/AVNC)] × 100where AVx denotes the average absorbance of the sample well and AVNC denotes the average absorbance of the negative control.

[24] = system: RPMI-8226 (leukemia); test: NCI-60 SRB cytotoxicity screen; conditions: Homo sapiens; RPMI-8226, single dose 10 μM; read-out: growth inhibition (GI%)
[25] = system: MDA-MB-468 (breast cancer); test: NCI-60 SRB cytotoxicity screen; conditions: Homo sapiens; MDA-MB-468, single dose 10 μM; read-out: growth inhibition (GI%)
Outline: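 NCI-60 single-dose (10^−5 M) screen in MDA-MB-468 with SRB protein-stain read-out after 48 h exposure; cells TCA-fixed and absorbance read at 540 nm. Reported as GI%, with compounds meeting NCI activity criteria then run at five doses (0.01–100 μM).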

[26] = system: SF-268 (CNS cancer); test: NCI-60 SRB cytotoxicity screen; conditions: Homo sapiens; SF-268, single dose 10 μM; read-out: growth inhibition (GI%)

In the case of `CCc1cccc2cc(C=CC(=O)c3ccc(F)cc3)c(Cl)nc12` [Compound 3d, 3-(2-Chloro-8-ethylquinolin-3-yl)-1-(4-fluorophenyl)prop-2-en-1-one], the inhibition at 10 µM [1] is reported as less than 10%, the inhibition at 10 µM [2] is reported as less than 10% and the inhibition at 10 µM [3] is reported as less than 10%. It also gave an inhibition at 10 µM [4] of less than 10%, an inhibition at 10 µM [5] of less than 10% and an inhibition at 10 µM [6] of less than 10%. The inhibition at 10 µM [7] was less than 10%, the inhibition at 10 µM [8] was less than 10% and the inhibition at 10 µM [9] was less than 10%. It also gave an inhibition at 10 µM [10] of less than 10%, an inhibition at 10 µM [11] of less than 10% and an inhibition at 10 µM [12] of less than 10%. The inhibition at 10 µM [13] was less than 10%, the inhibition at 10 µM [14] was less than 10% and the inhibition at 10 µM [15] was less than 10%. It also gave an inhibition at 10 µM [16] of less than 10%, an inhibition at 10 µM [17] of less than 10% and an inhibition at 10 µM [18] of less than 10%. For the same compound, the inhibition at 10 µM [19] was less than 10%, the inhibition at 10 µM [20] was less than 10% and the inhibition at 10 µM [21] was less than 10%. For the same compound, the inhibition at 10 µM [22] was less than 10%, the “cytotoxic activity over the cell lines (in words)” value [23] was “low cytotoxic activity” and the inhibition at 10 µM [24] was less than 10%. The inhibition at 10 µM [25] was less than 10% and the inhibition at 10 µM [26] was less than 10%.
With `CCc1cccc2cc(-c3cc(-c4ccc(OC)c(OC)c4)[nH]c(=O)c3C#N)c(Cl)nc12` [Compound 4b, 4-(2-Chloro-8-ethylquinolin-3-yl)-6-(3,4-dimethoxyphenyl)-2-oxo-1,2-dihydropyridine-3-carbonitrile] the inhibition at 10 µM [1] was less than 10%, the inhibition at 10 µM [2] was 33.8% and the inhibition at 10 µM [3] was less than 10%. The inhibition at 10 µM [4] was 16.6%, the inhibition at 10 µM [5] was less than 10% and the inhibition at 10 µM [6] was less than 10%. For the same compound, the inhibition at 10 µM [7] was less than 10%, the inhibition at 10 µM [8] was less than 10% and the inhibition at 10 µM [9] was less than 10%. It also gave an inhibition at 10 µM [10] of less than 10%, an inhibition at 10 µM [11] of less than 10% and an inhibition at 10 µM [12] of 10.3%. For the same compound, the inhibition at 10 µM [13] was less than 10%, the inhibition at 10 µM [14] was less than 10% and the inhibition at 10 µM [15] was less than 10%. For the same compound, the inhibition at 10 µM [16] was less than 10%, the inhibition at 10 µM [17] was 11.3% and the inhibition at 10 µM [18] was less than 10%. It also gave an inhibition at 10 µM [19] of less than 10%, an inhibition at 10 µM [20] of less than 10% and an inhibition at 10 µM [21] of 14.7%. The inhibition at 10 µM [22] was 20%, the “cytotoxic activity over the cell lines (in words)” value [23] was “mild cytotoxic activity” and the inhibition at 10 µM [24] was less than 10%. For the same compound, the inhibition at 10 µM [25] was less than 10% and the inhibition at 10 µM [26] was 16.1%.
